Measured values published in patent publication US11691980B2, “Liphagal analog and multi-targeted kinase inhibitor containing liphagal or analog thereof” (TOHOKU UNIVERSITY, priority 2017, dated 2023).

Legend:
Type in all cases: biochemical
AKT2 = target: T1, AKT2 (Homo sapiens, UniProt P31751); assay: mobility shift assay
T1 construct: purchased Carna Biosciences

HPK3 = target: T2, HPK3 (Homo sapiens, UniProt Q9H422); assay: mobility shift assay
T2 construct: purchased Carna Biosciences

TNK = target: T3, TNK (Homo sapiens, UniProt Q9UKE5); assay: mobility shift assay
T3 construct: purchased Carna Biosciences

HGK = target: T4, HGK (Homo sapiens, UniProt O95819); assay: mobility shift assay
T4 construct: purchased Carna Biosciences

CDK6 = CDK6 (Homo sapiens, UniProt Q00534); assay: IC50 by mobility shift assay; conditions: Table 4, inhibitory activity against CDK6, mobility shift assay; read-out: IC50 (μM), Kinase
Text: Next, the compounds produced in Production Examples described above were each assessed for its inhibitory activity against CDK6 by mobility shift assay. In addition, a combination showing the highest inhibitory activity is indicated by italics.

FGFR3 = target: T5, FGFR3 (Homo sapiens, UniProt P22607); assay: mobility shift assay
T5 construct: purchased Carna Biosciences

FAK = target: T6, FAK (Homo sapiens, UniProt Q05397); assay: mobility shift assay
T6 construct: purchased Carna Biosciences

LOK = target: T7, LOK (Homo sapiens, UniProt O94804); assay: mobility shift assay
T7 construct: purchased Carna Biosciences

FER = target: T8, FER (Homo sapiens, UniProt P16591); assay: mobility shift assay
T8 construct: purchased Carna Biosciences

IGF1R = target: T9, IGF1R (Homo sapiens, UniProt P08069); assay: mobility shift assay
T9 construct: purchased Carna Biosciences

MRCKα = target: T10, MRCKα (Homo sapiens, UniProt Q5VT25); assay: mobility shift assay
T10 construct: purchased Carna Biosciences

RSK1 = target: T11, RSK1 (Homo sapiens, UniProt Q15418); assay: mobility shift assay
T11 construct: purchased Carna Biosciences

FRK = target: T12, FRK (Homo sapiens, UniProt P42685); assay: mobility shift assay
T12 construct: purchased Carna Biosciences

PAK1 = target: T13, PAK1 (Homo sapiens, UniProt Q13153); assay: mobility shift assay
T13 construct: purchased Carna Biosciences

FGR = target: T14, FGR (Homo sapiens, UniProt P09769); assay: mobility shift assay
T14 construct: purchased Carna Biosciences

KIT(D816Y) = target: T15, KIT(D816Y) (Homo sapiens, UniProt P10721, D816Y); assay: mobility shift assay
T15 construct: purchased Carna Biosciences

AKT1 = target: T16, AKT1 (Homo sapiens, UniProt P31749); assay: mobility shift assay
T16 construct: purchased Carna Biosciences

EGFR = target: T17, EGFR (Homo sapiens, UniProt P00533); assay: mobility shift assay
T17 construct: purchased Carna Biosciences

MLK3_Cascade = target: T18, MLK3_Cascade (Homo sapiens, UniProt Q16584); assay: mobility shift assay
T18 construct: purchased Carna Biosciences

PDGFRβ = target: T19, PDGFRβ (Homo sapiens, UniProt P09619); assay: mobility shift assay
T19 construct: purchased Carna Biosciences

NEK4 = target: T20, NEK4 (Homo sapiens, UniProt P51957); assay: mobility shift assay
T20 construct: purchased Carna Biosciences

MELK = target: T21, MELK (Homo sapiens, UniProt Q14680); assay: mobility shift assay
T21 construct: purchased Carna Biosciences

RET(G691S) = target: T22, RET(G691S) (Homo sapiens, UniProt P07949, G691S); assay: mobility shift assay
T22 construct: purchased Carna Biosciences

PHKG1 = target: T23, PHKG1 (Homo sapiens, UniProt Q16816); assay: mobility shift assay
T23 construct: purchased Carna Biosciences

COK6/CycD3 = target: T24, COK6/CycD3 (Homo sapiens, UniProt Q00534); assay: mobility shift assay
T24 construct: purchased Carna Biosciences

PAK2 = target: T25, PAK2 (Homo sapiens, UniProt Q13177); assay: mobility shift assay
T25 construct: purchased Carna Biosciences

IRAK1 = target: T26, IRAK1 (Homo sapiens, UniProt P51617); assay: IMAP Assay
T26 construct: purchased Carna Biosciences

FYN(isoform a) = target: T27, FYN(isoform a) (Homo sapiens, UniProt P06241); assay: mobility shift assay
T27 construct: purchased Carna Biosciences

IRR = target: T28, IRR (Homo sapiens, UniProt P14616); assay: mobility shift assay
T28 construct: purchased Carna Biosciences

PDGFRα(T674I) = target: T29, PDGFRα(T674I) (Homo sapiens, UniProt P16234, T674I); assay: mobility shift assay
T29 construct: purchased Carna Biosciences

FM8 = target: T30, FM8 (Homo sapiens, UniProt P07333); assay: mobility shift assay
T30 construct: purchased Carna Biosciences

PIK3CA/PIK3R1 = PIK3CA/PIK3R1 (Homo sapiens, UniProt P42336); assay: mobility shift assay; design: purchased Carna Biosciences
Method: LG-1 (liphgal) at 10 μM was assessed for its inhibitory activity against 313 kinds of kinases by mobility shift assay or IMAP Assay™ (Carna Biosciences). Specifically, the assessment was performed by the IMAP Assay™ (Carna Biosciences) for SPRK1, PLK2, PKR, PKN1, PEK, IRAK1, and EKKα among the 313 kinds of kinases, and the assessment was performed by the mobility shift assay for all the other kinases. Inhibitory activity (% inhibition) against each kinase is represented by the size of a bubble on a protein kinase phylogenetic tree of FIG. 2.

ALK(C1156Y) = target: T31, ALK(C1156Y) (Homo sapiens, UniProt Q9UM73, C1156Y); assay: mobility shift assay
T31 construct: purchased Carna Biosciences

RAK4 = target: T32, RAK4 (Homo sapiens, UniProt Q9NWZ3); assay: mobility shift assay
T32 construct: purchased Carna Biosciences

CSK = target: T33, CSK (Homo sapiens, UniProt P41240); assay: mobility shift assay
T33 construct: purchased Carna Biosciences

SLK = target: T34, SLK (Homo sapiens, UniProt Q9H2G2); assay: mobility shift assay
T34 construct: purchased Carna Biosciences

PHKG2 = target: T35, PHKG2 (Homo sapiens, UniProt P15735); assay: mobility shift assay
T35 construct: purchased Carna Biosciences

T24 sequence (Q00534 whole entry): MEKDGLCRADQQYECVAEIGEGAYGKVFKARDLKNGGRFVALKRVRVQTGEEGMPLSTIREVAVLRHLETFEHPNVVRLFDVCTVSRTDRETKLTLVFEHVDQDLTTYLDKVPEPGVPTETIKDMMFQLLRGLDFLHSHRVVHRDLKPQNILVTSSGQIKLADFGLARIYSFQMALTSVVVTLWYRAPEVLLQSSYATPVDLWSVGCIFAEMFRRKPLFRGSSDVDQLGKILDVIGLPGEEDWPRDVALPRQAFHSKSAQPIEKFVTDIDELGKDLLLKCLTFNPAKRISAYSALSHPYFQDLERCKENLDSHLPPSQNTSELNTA
T24 sequence (P30281 whole entry partner): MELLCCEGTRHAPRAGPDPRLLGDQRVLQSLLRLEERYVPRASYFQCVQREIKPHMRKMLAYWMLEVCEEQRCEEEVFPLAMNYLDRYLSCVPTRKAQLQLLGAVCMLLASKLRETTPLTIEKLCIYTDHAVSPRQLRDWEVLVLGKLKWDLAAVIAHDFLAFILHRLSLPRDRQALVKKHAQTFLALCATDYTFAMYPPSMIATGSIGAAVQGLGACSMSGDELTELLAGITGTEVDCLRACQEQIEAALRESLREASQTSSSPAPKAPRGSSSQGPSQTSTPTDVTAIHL
T20 sequence (P51957 whole entry): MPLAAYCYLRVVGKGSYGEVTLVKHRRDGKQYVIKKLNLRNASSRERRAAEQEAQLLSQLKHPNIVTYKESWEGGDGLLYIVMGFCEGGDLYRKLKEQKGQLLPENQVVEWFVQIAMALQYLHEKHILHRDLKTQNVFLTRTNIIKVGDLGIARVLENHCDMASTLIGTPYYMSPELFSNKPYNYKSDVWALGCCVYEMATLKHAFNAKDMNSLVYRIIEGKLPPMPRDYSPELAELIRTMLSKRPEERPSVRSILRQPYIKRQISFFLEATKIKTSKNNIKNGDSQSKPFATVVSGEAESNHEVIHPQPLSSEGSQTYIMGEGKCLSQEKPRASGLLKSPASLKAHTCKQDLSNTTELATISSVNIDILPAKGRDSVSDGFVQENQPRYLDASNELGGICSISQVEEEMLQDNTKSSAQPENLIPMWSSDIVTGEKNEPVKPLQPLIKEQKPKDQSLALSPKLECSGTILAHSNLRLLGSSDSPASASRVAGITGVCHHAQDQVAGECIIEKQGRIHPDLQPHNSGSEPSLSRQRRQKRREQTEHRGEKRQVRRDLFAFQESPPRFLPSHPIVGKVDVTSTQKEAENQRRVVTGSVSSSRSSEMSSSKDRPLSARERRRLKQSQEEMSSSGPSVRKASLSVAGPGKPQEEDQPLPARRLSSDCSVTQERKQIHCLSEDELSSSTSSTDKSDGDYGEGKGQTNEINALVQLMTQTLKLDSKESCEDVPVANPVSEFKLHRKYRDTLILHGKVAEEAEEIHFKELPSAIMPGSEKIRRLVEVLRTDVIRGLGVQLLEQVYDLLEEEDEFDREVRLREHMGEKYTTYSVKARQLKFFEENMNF
T30 sequence (P07333 20-972): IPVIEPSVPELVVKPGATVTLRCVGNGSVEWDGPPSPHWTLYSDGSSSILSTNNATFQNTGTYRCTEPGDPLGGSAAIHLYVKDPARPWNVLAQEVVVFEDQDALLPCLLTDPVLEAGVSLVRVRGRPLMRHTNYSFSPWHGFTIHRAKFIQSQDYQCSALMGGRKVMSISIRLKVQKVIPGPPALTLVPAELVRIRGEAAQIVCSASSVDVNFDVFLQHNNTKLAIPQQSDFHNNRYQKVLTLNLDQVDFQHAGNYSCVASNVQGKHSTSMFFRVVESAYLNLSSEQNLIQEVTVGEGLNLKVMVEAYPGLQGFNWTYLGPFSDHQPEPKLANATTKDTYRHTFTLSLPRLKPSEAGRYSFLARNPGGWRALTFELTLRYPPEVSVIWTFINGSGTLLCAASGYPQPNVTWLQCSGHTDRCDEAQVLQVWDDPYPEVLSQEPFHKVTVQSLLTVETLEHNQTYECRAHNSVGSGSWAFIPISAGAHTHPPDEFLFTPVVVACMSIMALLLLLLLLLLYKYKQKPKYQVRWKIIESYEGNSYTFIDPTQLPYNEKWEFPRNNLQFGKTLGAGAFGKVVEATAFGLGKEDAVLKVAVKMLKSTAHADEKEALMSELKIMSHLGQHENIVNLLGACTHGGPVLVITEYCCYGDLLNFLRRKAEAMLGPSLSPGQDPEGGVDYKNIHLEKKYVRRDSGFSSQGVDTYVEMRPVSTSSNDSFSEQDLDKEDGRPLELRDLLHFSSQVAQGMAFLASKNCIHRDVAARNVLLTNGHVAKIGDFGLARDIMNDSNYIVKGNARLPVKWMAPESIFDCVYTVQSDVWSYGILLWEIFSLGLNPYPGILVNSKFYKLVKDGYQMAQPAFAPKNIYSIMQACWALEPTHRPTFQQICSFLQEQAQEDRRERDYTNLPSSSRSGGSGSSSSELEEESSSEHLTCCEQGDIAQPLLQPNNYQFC
Sequence of CDK6 (Q00534 whole entry): as the sequence (Q00534 whole entry) above
T1 sequence (P31751 whole entry): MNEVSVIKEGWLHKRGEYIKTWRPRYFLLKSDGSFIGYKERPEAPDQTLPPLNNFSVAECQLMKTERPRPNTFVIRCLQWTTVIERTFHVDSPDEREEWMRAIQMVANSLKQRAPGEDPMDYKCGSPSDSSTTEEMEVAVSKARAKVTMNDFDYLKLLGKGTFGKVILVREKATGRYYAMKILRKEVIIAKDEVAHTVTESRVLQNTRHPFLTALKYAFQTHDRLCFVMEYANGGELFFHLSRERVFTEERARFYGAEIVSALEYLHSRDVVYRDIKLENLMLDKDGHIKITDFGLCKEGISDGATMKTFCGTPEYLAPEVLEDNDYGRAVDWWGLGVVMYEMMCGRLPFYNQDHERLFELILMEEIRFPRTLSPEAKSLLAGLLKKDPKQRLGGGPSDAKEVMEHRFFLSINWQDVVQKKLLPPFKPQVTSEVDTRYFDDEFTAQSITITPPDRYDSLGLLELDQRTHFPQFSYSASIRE
T17 sequence (P00533 25-1210): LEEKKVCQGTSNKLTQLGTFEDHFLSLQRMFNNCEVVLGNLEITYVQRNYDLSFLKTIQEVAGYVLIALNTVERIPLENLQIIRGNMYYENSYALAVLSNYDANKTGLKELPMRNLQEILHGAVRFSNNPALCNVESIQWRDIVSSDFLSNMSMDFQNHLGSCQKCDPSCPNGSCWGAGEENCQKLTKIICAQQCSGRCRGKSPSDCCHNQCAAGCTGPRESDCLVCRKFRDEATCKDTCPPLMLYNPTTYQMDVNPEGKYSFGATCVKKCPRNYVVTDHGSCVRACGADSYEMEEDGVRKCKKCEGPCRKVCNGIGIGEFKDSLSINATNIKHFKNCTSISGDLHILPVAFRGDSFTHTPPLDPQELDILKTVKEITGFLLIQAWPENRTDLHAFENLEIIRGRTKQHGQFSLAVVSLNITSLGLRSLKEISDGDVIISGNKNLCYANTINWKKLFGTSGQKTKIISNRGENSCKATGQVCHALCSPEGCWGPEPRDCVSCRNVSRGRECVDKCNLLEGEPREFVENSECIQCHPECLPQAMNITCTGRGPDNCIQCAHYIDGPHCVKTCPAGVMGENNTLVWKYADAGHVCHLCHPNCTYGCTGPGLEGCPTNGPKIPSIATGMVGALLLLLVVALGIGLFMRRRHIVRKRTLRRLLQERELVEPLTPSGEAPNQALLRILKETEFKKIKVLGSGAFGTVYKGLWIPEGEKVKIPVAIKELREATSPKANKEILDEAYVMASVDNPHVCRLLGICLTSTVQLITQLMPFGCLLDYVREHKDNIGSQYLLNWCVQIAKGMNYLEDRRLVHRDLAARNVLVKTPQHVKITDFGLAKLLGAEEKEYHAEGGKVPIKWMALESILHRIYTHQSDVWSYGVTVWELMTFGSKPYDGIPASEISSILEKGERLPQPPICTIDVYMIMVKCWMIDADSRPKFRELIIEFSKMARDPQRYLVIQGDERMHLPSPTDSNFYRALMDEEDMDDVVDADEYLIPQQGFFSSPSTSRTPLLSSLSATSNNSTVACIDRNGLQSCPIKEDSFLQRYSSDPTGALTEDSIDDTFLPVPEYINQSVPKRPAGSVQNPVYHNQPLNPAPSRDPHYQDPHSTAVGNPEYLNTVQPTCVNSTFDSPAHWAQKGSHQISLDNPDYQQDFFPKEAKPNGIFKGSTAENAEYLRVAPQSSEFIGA
T5 sequence (P22607 23-806): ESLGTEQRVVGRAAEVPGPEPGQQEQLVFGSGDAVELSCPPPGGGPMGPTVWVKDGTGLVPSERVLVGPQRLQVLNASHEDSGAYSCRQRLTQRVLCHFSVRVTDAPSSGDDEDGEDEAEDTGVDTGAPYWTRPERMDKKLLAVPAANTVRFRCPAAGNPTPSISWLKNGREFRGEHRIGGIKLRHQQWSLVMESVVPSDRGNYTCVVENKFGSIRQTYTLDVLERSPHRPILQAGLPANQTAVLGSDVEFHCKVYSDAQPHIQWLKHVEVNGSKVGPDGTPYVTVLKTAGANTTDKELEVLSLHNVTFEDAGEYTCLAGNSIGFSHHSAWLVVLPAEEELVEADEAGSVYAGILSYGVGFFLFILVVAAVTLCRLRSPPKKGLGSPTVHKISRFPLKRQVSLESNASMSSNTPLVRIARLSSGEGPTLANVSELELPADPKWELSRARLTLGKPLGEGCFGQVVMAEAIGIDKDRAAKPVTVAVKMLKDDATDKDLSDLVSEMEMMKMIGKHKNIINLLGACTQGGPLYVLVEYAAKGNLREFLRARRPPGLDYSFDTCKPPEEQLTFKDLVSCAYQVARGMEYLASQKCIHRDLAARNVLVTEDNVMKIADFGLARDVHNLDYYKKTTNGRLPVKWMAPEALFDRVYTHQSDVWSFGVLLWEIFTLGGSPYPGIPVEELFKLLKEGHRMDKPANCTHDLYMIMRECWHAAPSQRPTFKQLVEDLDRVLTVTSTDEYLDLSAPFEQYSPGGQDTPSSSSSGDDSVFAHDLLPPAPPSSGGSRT

C[C@@H]1CC[C@H]2C(C)(C)CCC[C@]2(C)c2c1oc1c(C=O)c(O)c(O)cc21 [LG-1, liphagal]
inhibition at 10 µM (AKT2): 6.2%
inhibition at 10 µM (HPK3): 20.5%
inhibition at 10 µM (TNK): 0.1%
inhibition at 10 µM (HGK): 1.2%
IC50 (CDK6): 6.78 µM
inhibition at 10 µM (FGFR3): -4.4%
inhibition at 10 µM (FAK): 24.5%
inhibition at 10 µM (LOK): 15.8%
inhibition at 10 µM (FER): 42.8%
inhibition at 10 µM (IGF1R): 8.7%
inhibition at 10 µM (MRCKα): 16%
inhibition at 10 µM (RSK1): 34.3%
inhibition at 10 µM (FRK): 1.4%
inhibition at 10 µM (PAK1): 0.5%
inhibition at 10 µM (FGR): 9.3%
inhibition at 10 µM (KIT(D816Y)): 6.2%
inhibition at 10 µM (AKT1): 3.1%
inhibition at 10 µM (EGFR): -4.4%
inhibition at 10 µM (MLK3_Cascade): 19.5%
inhibition at 10 µM (PDGFRβ): -3.4%
inhibition at 10 µM (NEK4): 8.7%
inhibition at 10 µM (MELK): 49.2%
inhibition at 10 µM (RET(G691S)): 14.8%
inhibition at 10 µM (PHKG1): 21.7%
inhibition at 10 µM (COK6/CycD3; COK6/CycD3): 72.7%
inhibitory activity against CDK6 (COK6/CycD3; in words, 10 μM): Potent inhibitory activity
inhibition at 10 µM (PAK2): 12.4%
inhibition at 10 µM (IRAK1): 1.2%
inhibition at 10 µM (FYN(isoform a)): 0.5%
inhibition at 10 µM (IRR): 23.1%
inhibition at 10 µM (PDGFRα(T674I)): 29.2%
inhibition at 10 µM (FM8): 12.5%
inhibition at 10 µM (PIK3CA/PIK3R1): 83.4%
inhibition at 10 µM (ALK(C1156Y)): 0.2%
inhibition at 10 µM (RAK4): -2.8%
inhibition at 10 µM (CSK): 7.2%
inhibition at 10 µM (SLK): 10.5%
inhibition at 10 µM (PHKG2): 1.5%
